# Test results taken from publication PMC11428279, “Exploring Structure–Activity Relationships and Modes of Action of Laterocidine” (ACS Central Science, 2024).
# Read-outs that look alike come from different tables or passages of the source. Bridge positions count the residues as written; N and C are the ends. Square brackets hold non-standard residues; d marks the D form. Peptide text beside a SMILES is read from it. * marks the point of attachment. Pen = CC(C)(S)[C@H](N)C(=O)O; dOrn = NCCC[C@@H](N)C(=O)O; Nonanoyl = CCCCCCCCC(=O)*; X2 = O=C(c1ccc(Cl)cc1Cl)*; Orn = NCCC[C@H](N)C(=O)O; Dap = NC[C@H](N)C(=O)O
# Legend:
# A. baumannii = assay type: cell-based
# Method: (§1) MICs for laterocidine and its various analogues were determined by broth microdilution[49] for the following polymyxin-susceptible ATCC and clinical isolates: P. aeruginosa FADDI-PA022, FADDI-PA001, FADDI-PA025, FADDI-PA070, FADDI-PA060; A. baumannii FADDI-AB134, FADDI-AB034, FADDI-AB030, FADDI-AB174, FADDI-AB241; K. pneumoniae FADDI-KP032, FADDI-KP022, BM1, FADDI-KP065, FADDI-KP064, FADDI-KP003; and E. cloacae FADDI-EC001, FADDI-EC003, and FADDI-EC006. Experiments were performed with cation-adjusted Mueller–Hinton broth (CAMHB) in 96-well polystyrene microtiter plates. Wells were inoculated with 100 μL of bacterial suspension prepared in CAMHB (containing ∼10^6 CFU/mL) and 100 μL of CAMHB containing increasing concentrations of polymyxins (0–32 μg/mL). MIC measurements were performed in duplicate, with the MIC being the lowest concentration at which visible growth was inhibited following 18–20 h of incubation at 37 °C. Bacterial killing kinetics was investigated over 24 h as described previously.[50]
# [1] = system: Gram-negative strains of P. aeruginosa, A. baumannii, K. pneumoniae, and E. cloacae; assay type: cell-based
# Method: as §1
# [2] = compared with native laterocidine
SMILES,MICs against P. aeruginosa and A. baumannii (range) [1] [µg/mL],"fold increase in MIC (loss of activity) against all strains / all species [1, 2]",also measured
CC[C@H](C)[C@@H]1NC(=O)[C@@H](NC(=O)[C@H](Cc2c[nH]c3ccccc23)NC(=O)[C@@H](CCCN)NC(=O)CNC(=O)[C@H](CCCN)NC(=O)[C@@H](CCCN)NC(=O)[C@@H](Cc2c[nH]c3ccccc23)NC(=O)[C@@H](Cc2ccc(O)cc2)NC(=O)[C@@H](CO)NC(=O)c2ccc(Cl)cc2Cl)[C@@H](C)OC(=O)CNC(=O)CNC(=O)[C@H](CC(N)=O)NC1=O [Peptide 12] (X2-[dS][dY][dW][dOrn][Orn]G[dOrn]WTINGG; ester 9-C),,,fold increase in MIC (loss of activity) against A. baumannii (A. baumannii; [2]): 4–8 fold
CCCCCCCCC(=O)N[C@H](CO)C(=O)N[C@H](Cc1ccc(O)cc1)C(=O)N[C@H](Cc1c[nH]c2ccccc12)C(=O)N[C@H](CCCN)C(=O)N[C@@H](CCCN)C(=O)NCC(=O)N[C@H](CCCN)C(=O)N[C@@H](Cc1c[nH]c2ccccc12)C(=O)N[C@H]1CNC(=O)CNC(=O)CNC(=O)[C@H](CC(N)=O)NC(=O)[C@H]([C@@H](C)CC)NC1=O [Peptide 16] (Nonanoyl-[dS][dY][dW][dOrn][Orn]G[dOrn]W[Dap]INGG; lactam 9-C),> 32,,
CCCCCCCCC(=O)N[C@H](CO)C(=O)N[C@H](Cc1ccc(O)cc1)C(=O)N[C@H](Cc1c[nH]c2ccccc12)C(=O)N[C@H](CCCN)C(=O)N[C@@H](CCCN)C(=O)NCC(=O)N[C@H](CCCN)C(=O)N[C@@H](Cc1c[nH]c2ccccc12)C(=O)N[C@H](C(=O)N[C@H](C(=O)N[C@@H](CC(N)=O)C(=O)NCC(=O)NCC(=O)O)[C@@H](C)CC)[C@@H](C)O [Peptide 19] (Nonanoyl-[dS][dY][dW][dOrn][Orn]G[dOrn]WTINGG-OH),8 to 32,,"MICs against K. pneumoniae and E. cloacae (range) [1]: 4 to 32 µg/mL; fold increase in MIC for K. pneumoniae and E. cloacae [1, 2]: 2–4 fold; fold increase in MIC for P. aeruginosa and A. baumannii [1, 2]: 2–8 fold"
CCCCCCCCC(=O)N[C@H](CO)C(=O)N[C@H](Cc1ccc(O)cc1)C(=O)N[C@H](Cc1c[nH]c2ccccc12)C(=O)N[C@H](CCCN)C(=O)N[C@@H](CCCN)C(=O)NCC(=O)N[C@H](CCCN)C(=O)N[C@@H](Cc1c[nH]c2ccccc12)C(=O)N[C@@H]1C(=O)N[C@@H]([C@@H](C)CC)C(=O)N[C@@H](C)C(=O)NCC(=O)NCC(=O)O[C@@H]1C [Peptide 26] (Nonanoyl-[dS][dY][dW][dOrn][Orn]G[dOrn]WTIAGG; ester 9-C),2 to 16,no more than 1 fold,
CCCCCCCCC(=O)N[C@H](CO)C(=O)N[C@H](C)C(=O)N[C@H](Cc1c[nH]c2ccccc12)C(=O)N[C@H](CCCN)C(=O)N[C@@H](CCCN)C(=O)NCC(=O)N[C@H](CCCN)C(=O)N[C@@H](Cc1c[nH]c2ccccc12)C(=O)N[C@@H]1C(=O)N[C@@H]([C@@H](C)CC)C(=O)N[C@@H](CC(N)=O)C(=O)NCC(=O)NCC(=O)O[C@@H]1C [Peptide 34] (Nonanoyl-[dS][dA][dW][dOrn][Orn]G[dOrn]WTINGG; ester 9-C),,,MICs against A. baumannii (range over strains) (A. baumannii): ≥ 32 µg/mL
CCCCCCCCC(=O)N[C@H](CO)C(=O)N[C@H](Cc1ccc(O)cc1)C(=O)N[C@H](Cc1c[nH]c2ccccc12)C(=O)N[C@H](CCCN)C(=O)N[C@@H](C)C(=O)NCC(=O)N[C@H](CCCN)C(=O)N[C@@H](Cc1c[nH]c2ccccc12)C(=O)N[C@@H]1C(=O)N[C@@H]([C@@H](C)CC)C(=O)N[C@@H](CC(N)=O)C(=O)NCC(=O)NCC(=O)O[C@@H]1C [Peptide 31] (Nonanoyl-[dS][dY][dW][dOrn]AG[dOrn]WTINGG; ester 9-C),,2–8 fold,
CCCCCCCCC(=O)N[C@H](CO)C(=O)N[C@H](Cc1ccc(O)cc1)C(=O)N[C@H](Cc1c[nH]c2ccccc12)C(=O)N[C@H](CCCN)C(=O)N[C@@H](CCCN)C(=O)NCC(=O)N[C@H](CCCN)C(=O)N[C@@H](Cc1c[nH]c2ccccc12)C(=O)N[C@H](C(=O)N[C@H](C(=O)N[C@@H](CC(N)=O)C(=O)NCC(N)=O)[C@@H](C)CC)[C@@H](C)O [Peptide 21] (Nonanoyl-[dS][dY][dW][dOrn][Orn]G[dOrn]WTING-NH2),,,"fold increase in MIC against P. aeruginosa, K. pneumoniae, and E. cloacae [1, 2]: 1–2 fold"
CCCCCCCCC(=O)N[C@H](CO)C(=O)N[C@H](Cc1ccc(O)cc1)C(=O)N[C@H](C)C(=O)N[C@H](CCCN)C(=O)N[C@@H](CCCN)C(=O)NCC(=O)N[C@H](CCCN)C(=O)N[C@@H](Cc1c[nH]c2ccccc12)C(=O)N[C@@H]1C(=O)N[C@@H]([C@@H](C)CC)C(=O)N[C@@H](CC(N)=O)C(=O)NCC(=O)NCC(=O)O[C@@H]1C [Peptide 33] (Nonanoyl-[dS][dY][dA][dOrn][Orn]G[dOrn]WTINGG; ester 9-C),,,MICs against A. baumannii (range over strains) (A. baumannii; summary of Tables 1 and 2): > 32 µg/mL
CCCCCCCCC(=O)N[C@H](CO)C(=O)N[C@H](Cc1ccc(O)cc1)C(=O)N[C@H](Cc1c[nH]c2ccccc12)C(=O)N[C@H](C)C(=O)N[C@@H](CCCN)C(=O)NCC(=O)N[C@H](CCCN)C(=O)N[C@@H](Cc1c[nH]c2ccccc12)C(=O)N[C@@H]1C(=O)N[C@@H]([C@@H](C)CC)C(=O)N[C@@H](CC(N)=O)C(=O)NCC(=O)NCC(=O)O[C@@H]1C [Peptide 32] (Nonanoyl-[dS][dY][dW][dA][Orn]G[dOrn]WTINGG; ester 9-C),,2–8 fold,
"CC[C@H](C)[C@@H]1NC(=O)[C@@H](N)[C@@H](C)OC(=O)CNC(=O)CNC(=O)[C@H](CC(N)=O)NC1=O [Peptide 13] (HELM PEPTIDE1{[C[C@@H](O[*:3])[C@H](N)C(=O)[*:2]].I.N.G.G}$PEPTIDE1,PEPTIDE1,1:R3-5:R2$$$V2.0)",,,MICs against all tested strains (range) [1]: > 32 µg/mL
CCCCCCCCC(=O)N[C@H](CO)C(=O)N[C@H](Cc1ccc(O)cc1)C(=O)N[C@H](Cc1c[nH]c2ccccc12)C(=O)N[C@H](CCCN)C(=O)N[C@@H](CCCN)C(=O)NCC(=O)N[C@H](CCCN)C(=O)N[C@@H](Cc1c[nH]c2ccccc12)C(=O)N[C@@H]1C(=O)N[C@@H]([C@@H](C)CC)C(=O)N[C@@H](CC(N)=O)C(=O)N[C@@H](C)C(=O)NCC(=O)O[C@@H]1C [Peptide 25] (Nonanoyl-[dS][dY][dW][dOrn][Orn]G[dOrn]WTINAG; ester 9-C),2 to 16,no more than 1 fold,
CCCCCCCCC(=O)N[C@H](CO)C(=O)N[C@H](Cc1ccc(O)cc1)C(=O)N[C@H](Cc1c[nH]c2ccccc12)C(=O)N[C@H](CCCN)C(=O)N[C@@H](CCCN)C(=O)NCC(=O)N[C@H](C)C(=O)N[C@@H](Cc1c[nH]c2ccccc12)C(=O)N[C@@H]1C(=O)N[C@@H]([C@@H](C)CC)C(=O)N[C@@H](CC(N)=O)C(=O)NCC(=O)NCC(=O)O[C@@H]1C [Peptide 29] (Nonanoyl-[dS][dY][dW][dOrn][Orn]G[dA]WTINGG; ester 9-C),,2–4 fold,
CC[C@H](C)[C@@H]1NC(=O)[C@@H](NC(=O)[C@H](Cc2c[nH]c3ccccc23)NC(=O)[C@@H](CCCN)NC(=O)CNC(=O)[C@H](CCCN)NC(=O)[C@@H](CCCN)NC(=O)[C@@H](Cc2c[nH]c3ccccc23)NC(=O)[C@@H](Cc2ccc(O)cc2)NC(=O)[C@H](N)CO)[C@@H](C)OC(=O)CNC(=O)CNC(=O)[C@H](CC(N)=O)NC1=O [Peptide 14] (H-[dS][dY][dW][dOrn][Orn]G[dOrn]WTINGG; ester 9-C),,,MICs against all tested strains (range) [1]: > 32 µg/mL
CCCCCCCCC(=O)N[C@H](CO)C(=O)N[C@H](Cc1ccc(O)cc1)C(=O)N[C@H](Cc1c[nH]c2ccccc12)C(=O)N[C@H](CCCN)C(=O)N[C@@H](CCCN)C(=O)NCC(=O)N[C@H](CCCN)C(=O)N[C@@H](Cc1c[nH]c2ccccc12)C(=O)N[C@@H]1C(=O)N[C@@H]([C@@H](C)CC)C(=O)N[C@@H](CC(N)=O)C(=O)NCC(=O)N[C@H](C(=O)O)CSSC1(C)C [Peptide 18] (Nonanoyl-[dS][dY][dW][dOrn][Orn]G[dOrn]W[Pen]INGC-OH; disulfide 9-13; C-terminus assumed),,2–8 fold,
CCCCCCCCC(=O)N[C@H](CO)C(=O)N[C@H](Cc1ccc(O)cc1)C(=O)N[C@H](Cc1c[nH]c2ccccc12)C(=O)N[C@H](CCCN)C(=O)N[C@@H](CCCN)C(=O)NCC(=O)N[C@H](CCCN)C(=O)N[C@@H](Cc1c[nH]c2ccccc12)C(=O)N[C@H](C(=O)N[C@H](C(=O)N[C@@H](CC(N)=O)C(=O)NCC(=O)NCC(N)=O)[C@@H](C)CC)[C@@H](C)O [Peptide 20] (Nonanoyl-[dS][dY][dW][dOrn][Orn]G[dOrn]WTINGG-NH2),,,"MICs against P. aeruginosa, K. pneumoniae, and E. cloacae (range) [1]: 4 to 32 µg/mL; fold increase in MIC against P. aeruginosa, K. pneumoniae, and E. cloacae [1, 2]: 2–4 fold"
CCCCCCCCC(=O)N[C@H](CO)C(=O)N[C@H](Cc1ccc(O)cc1)C(=O)N[C@H](Cc1c[nH]c2ccccc12)C(=O)N[C@H](CCCN)C(=O)N[C@@H](CCCN)C(=O)NCC(=O)N[C@H](CCCN)C(=O)N[C@@H](Cc1c[nH]c2ccccc12)C(=O)N[C@@H]1C(=O)N[C@@H]([C@@H](C)CC)C(=O)N[C@@H](CC(N)=O)C(=O)NCC(=O)NCC(=O)N[C@@H]1C [Peptide 17],> 32,,
